Series [1] concerns the target T1, human androgen receptor W741L mutant (Homo sapiens, UniProt P10275, W742L).
T1 construct: expressed in transfected cells; host or cells: PC-3 cells, transient transfection with a pSG5-derived plasmid
T1 sequence (P10275 1-920 W742L): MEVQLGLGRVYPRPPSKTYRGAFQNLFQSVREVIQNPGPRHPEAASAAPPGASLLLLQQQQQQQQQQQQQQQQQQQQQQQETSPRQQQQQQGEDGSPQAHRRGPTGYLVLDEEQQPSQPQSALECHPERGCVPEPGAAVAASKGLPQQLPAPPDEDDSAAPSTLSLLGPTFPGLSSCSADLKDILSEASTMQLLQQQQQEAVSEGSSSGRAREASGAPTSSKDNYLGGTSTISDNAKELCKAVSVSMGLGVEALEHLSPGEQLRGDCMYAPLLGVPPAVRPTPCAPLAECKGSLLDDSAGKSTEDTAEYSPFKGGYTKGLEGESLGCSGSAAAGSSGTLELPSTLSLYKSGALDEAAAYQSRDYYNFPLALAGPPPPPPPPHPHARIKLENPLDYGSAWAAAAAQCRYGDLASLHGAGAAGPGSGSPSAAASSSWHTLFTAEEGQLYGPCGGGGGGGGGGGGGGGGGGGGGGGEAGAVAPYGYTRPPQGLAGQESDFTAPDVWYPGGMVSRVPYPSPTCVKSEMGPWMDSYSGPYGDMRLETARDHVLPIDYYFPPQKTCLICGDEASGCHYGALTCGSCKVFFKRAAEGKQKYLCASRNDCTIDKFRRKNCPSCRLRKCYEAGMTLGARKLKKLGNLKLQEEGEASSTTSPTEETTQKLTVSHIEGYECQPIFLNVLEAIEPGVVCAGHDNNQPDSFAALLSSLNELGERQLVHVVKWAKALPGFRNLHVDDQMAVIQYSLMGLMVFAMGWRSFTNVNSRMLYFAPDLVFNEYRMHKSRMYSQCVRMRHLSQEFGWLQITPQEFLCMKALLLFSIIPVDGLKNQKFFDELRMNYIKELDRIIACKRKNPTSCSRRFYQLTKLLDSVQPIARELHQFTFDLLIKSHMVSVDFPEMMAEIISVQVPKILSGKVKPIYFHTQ
As to the kind of experiment: Cell-based transactivation assay for human androgen receptor mutant W741L.
Protocol: Cell-Based Transactivation Assay for Human Androgen Receptor Mutant W741L or W741C
PC-3 cells (Kaighn et al., Invest. Urol. 17:16-23, 1979) were grown in 5% charcoal-stripped medium and seeded at a concentration of 10000 cells per well in a 96-well plate. They were transiently transfected with a pSG5-derived plasmid (#216201 from Stratagene, La Jolla, Calif., USA) coding for the human androgen receptor W741L or W741C mutant Mara et al., Cancer Research, 63: 149-153, 2003) and an MMTV-Luciferase reporter plasmid based on pGL4.14 14 (#E6691, Promega Corporation, Madison, Wis., USA). The compound to be tested was added at a concentration range varying from 1×10^−9 to 1×10 M together with 1×10^−10 R1881. After 24 h incubation at 37° C. in a 5% CO2 atmosphere, 100 μl of Steady Glo Lysis and Detection reagent (Steady Glo Luciferase assay system E2550 from Promega Corporation. Madison, Wis., USA) were added. Antagonistic activity was determined by measuring Luciferase activity in a Victor 3 Luminometer (PerkinElmer, Waltham, Mass., USA) using the Steady Glo Luciferase Assay (E2550, Promega). IC50 values were calculated for anti-androgenic activity.

Series [2] has as its target T2, human androgen receptor E709Y mutant (Homo sapiens, UniProt P10275, E710Y).
T2 construct: expressed in transfected cells; host or cells: PC-3 cells, transient transfection with a pSG5-derived plasmid
T2 sequence (P10275 1-920 E710Y): T1 sequence (P10275 1-920 W742L) with E710Y, L742W
As to the kind of experiment: Cell-based transactivation assay for human androgen receptor mutant E709Y.
Protocol: Cell-Based Transactivation Assay for Human Androgen Receptor Mutant E709Y
PC-3 cells (Kaighn et al., Invest. Urol. 17:16-23, 1979) were grown in 5% charcoal-stripped medium and seeded at a concentration of 10000 cells per well in a 96-well plate. They were transiently transfected with a pSG5-derived plasmid (#216201 from Stratagene, La Jolla, Calif., USA) coding for the human androgen receptor E709Y mutant (Georget et al., Molecular Endocrinology, 20(4): 724-734, 2006) and an MMTV-Luciferase reporter plasmid based on pGL4.14 14 (#E6691, Promega Corporation, Madison, Wis., USA). The compound to be tested was added at a concentration range varying from 1×10^−9 to 1×10^−6 M together with 1×10^−10 R1881. After 24 h incubation at 37° C. in a 5% CO2 atmosphere, 100 μl of Steady Glo Lysis and Detection reagent (Steady Glo Luciferase assay system E2550 from Promega Corporation. Madison, Wis., USA) were added. Antagonistic activity was determined by measuring Luciferase activity in a Victor 3 Luminometer (PerkinElmer, Waltham, Mass., USA) using the Steady Glo Luciferase Assay (E2550, Promega). IC50 values were calculated for anti-androgenic activity.

Series [3] is described as follows: Determination of metabolic stability in vitro (calculation of hepatic in vivo blood clearance). Format: in vitro ADME. The following applies: pH 7.4, human liver microsomes, calculated from half-life, read-out: calculated hepatic in vivo blood clearance (CL) (converted). On the procedure: Determination of Metabolic Stability In Vitro (Including Calculation of Hepatic In Vivo Blood Clearance (CL) and of Maximal Oral Bioavailability (Fmax))
The metabolic stability of test compounds in vitro was determined by incubating them at 1 μM with a suspension of human liver microsomes in 100 mM phosphate buffer, pH7.4 (NaH2PO4×H2O+Na2HPO4×2H2O) at a protein concentration of 0.5 mg/ml and at 37° C. The reaction was activated by adding a co-factor mix containing 1.2 mg NADP, 3 IU glucose-6-phosphate dehydrogenase, 14.6 mg glucose-6-phosphate and 4.9 mg MgCl2 in phosphate buffer, pH 7.4. Organic solvent in the incubations was limited to <0.2% dimethylsulfoxide (DMSO) and <1% methanol. During incubation, the microsomal suspensions were continuously shaken and aliquots were taken at 2, 8, 16, 30, 45 and 60 min, to which equal volumes of cold methanol were immediately added. Samples were freezed at −20° C. over night, subsequently centrifuged for 15 minutes at 3000 rpm and the supernatant was analyzed with an Agilent 1200 HPLC-system with LCMS/MS detection.
The half-life of a test compound was determined from the concentration-time plot. From the half-life the intrinsic clearances were calculated. Together with the additional parameters liver blood flow, specific liver weight and microsomal protein content the hepatic in vivo blood clearance (CL) and the maximal oral bioavailability (Fmax) were calculated for the different species. The following parameter values were used: Liver blood flow—1.3 l/h/kg human; specific liver weight—21 g/kg human; microsomal protein content—40 mg/g.
With the described assay only phase-I metabolism of microsomes is reflected, e.g. typically oxidoreductive reactions by cytochrome P450 enzymes and flavin mono-oxygenases (FMO) and hydrolytic reactions by esterases (esters and amides).

Residue numbers refer to the chain shown, from its start.

One may read the IC50 as the concentration that inhibits the measured activity by half. A higher IC50 goes with weaker potency in that assay. Regarding `CN1C(=S)N(c2ccc(C#N)c(C(F)(F)F)c2)C(=O)C1(C)C` [2-(Trifluoromethyl)-4-(3,4,4-trimethyl-5-oxo-2-thioxoimidazolidin-1-yl)benzonitrile, reference compound], the IC50 was found to be 159 nM in series [1] and 117 nM in series [2].
For `CC1(C)C(=O)N(c2ccc(C#N)c(C(F)(F)F)c2)C(=S)N1CCCCO` [4-[3-(4-Hydroxybutyl)-4,4-dimethyl-5-oxo-2-thioxoimidazolidin-1-yl]-2-(trifluoromethyl)benzonitrile, reference compound], in that order: 89.7 nM and above 1000 nM.
For `CC1(C)C(=O)N(c2ccc(C#N)c(C(F)(F)F)c2)C(=S)N1Cc1ccc(F)cc1` [Comparative data^4], in that order: above 1000 nM and above 1000 nM.
For the compound `CC1(C)C(=O)N(c2ccc(C#N)c(C(F)(F)F)c2)C(=S)N1Cc1ccccc1` [Comparative data^4], the IC50 turned out to be 166 nM in series [1] and 587 nM in series [2].
In the case of `CC1(C)C(=O)N(c2ccc(C#N)c(C(F)(F)F)c2)C(=S)N1Cc1ccc(-n2ccnc2)nc1` [Example 1, 4-(3-{[6-(1H-Imidazol-1-yl)pyridin-3-yl]methyl}-4,4-dimethyl-5-oxo-2-thioxoimidazolidin-1-yl)-2-(trifluoromethyl)benzonitrile], the IC50 in series [1] stood at 173 nM; in series [2], 7.21 nM. The CLhep predicted at 1 µM in series [3] is 4.33 mL/min/kg.
Take `CC1(C)C(=O)N(c2ccc(C#N)c(C(F)(F)F)c2)C(=S)N1Cc1ccc(C(F)(F)F)nc1` [Example 2, 4-(4,4-Dimethyl-5-oxo-2-thioxo-3-{[6-(trifluoromethyl)pyridin-3-yl]methyl}imidazolidin-1-yl)-2-(trifluoromethyl)benzonitrile]: the half-inhibitory concentration (IC50) in series [1] is 86.7 nM; in series [2], 14.2 nM. In addition, the CLhep predicted at 1 µM in series [3] was 6.5 mL/min/kg.
As for `CC1(C)C(=O)N(c2ccc(C#N)c(C(F)(F)F)c2)C(=S)N1Cc1ccc(N2CCOCC2)nc1` [Example 4, 4-(4,4-Dimethyl-3-{[6-(morpholin-4-yl)pyridin-3-yl]methyl}-5-oxo-2-thioxoimidazolidin-1-yl)-2-(trifluoromethyl)benzonitrile], the IC50 in series [1] came out at 89.2 nM; in series [2] it was 77.2 nM.
Turning to `CC1(C)C(=O)N(c2ccc(C#N)c(C(F)(F)F)c2)C(=S)N1Cc1ccc(N2CCS(=N)(=O)CC2)nc1` [Example 9, 4-(3-{[6-(1-Imino-1-oxido-1λ^6-thiomorpholin-4-yl)pyridin-3-yl]methyl}-4,4-dimethyl-5-oxo-2-thioxoimidazolidin-1-yl)-2-(trifluoromethyl)benzonitrile], the IC50 is 275 nM in series [1] and 5.65 nM in series [2]. In series [3], the CLhep predicted at 1 µM was 8 mL/min/kg.
For `CC(C)(O)COc1ccc(CN2C(=S)N(c3ccc(C#N)c(C(F)(F)F)c3)C(=O)C2(C)C)cn1` [Example 10, 4-(3-{[6-(2-Hydroxy-2-methylpropoxy)pyridin-3-yl]methyl}-4,4-dimethyl-5-oxo-2-thioxoimidazolidin-1-yl)-2-(trifluoromethyl)benzonitrile] the same measures were 285 nM, 26.3 nM and 5.83 mL/min/kg.
For `Cc1nc(C(F)(F)F)ccc1CN1C(=S)N(c2ccc(C#N)c(C(F)(F)F)c2)C(=O)C1(C)C` [Example 13, 4-(4,4-Dimethyl-3-{[2-methyl-6-(trifluoromethyl)pyridin-3-yl]methyl}-5-oxo-2-thioxoimidazolidin-1-yl)-2-(trifluoromethyl)benzonitrile] the same measures were 93.7 nM, 24.7 nM and 3.17 mL/min/kg.

The values are drawn from patent US20120251551A1, “Substituted (Heteroarylmethyl)thiohydantoins” (BAYER PHARMA AKTIENGESELLSCHAFT, priority 2009, published 2012).
